Source: patent EP1144369B1 (Wyeth Holdings Corporation, priority 1999, dated 2000)
Counter-ions that a name gives are not always drawn.

What was measured:
MMP-13 = MMP-13 (Homo sapiens, UniProt P45452); experiment: MMP-13 inhibition (thiopeptide or fluorescent peptide substrate); type: biochemical
Procedure: (§1) The enzyme activity is measured by the rate of the color increase. The thiopeptide substrate is made up fresh as a 20 mM stock in 100% DMSO and the DTNB is dissolved in 100% DMSO as a 100 mM stock and stored in the dark at room temperature. Both the substrate and DTNB are diluted together to 1 mM with substrate buffer (50 mM HEPES pH 7.5, 5 mM CaCl2) before use. The stock of enzyme is diluted with buffer (50 mM HEPES, pH 7.5, 5 mM CaCl2, 0.02% Brij) to the desired final concentration.
(§2) Alternatively, a fluorescent peptide substrate is used. In this test procedure, the peptide substrate contains a fluorescent group and a quenching group. Upon cleavage of the substrate by an MMP, the fluorescence that is generated is quantitated on the fluorescence plate reader. The assay is run in HCBC assay buffer (50mM HEPES, pH 7.0, 5 mM Ca^+2, 0.02% Brij, 0.5% Cysteine), with human recombinant MMP-1, MMP-9, or MMP-13. The substrate is dissolved in methanol and stored frozen in 1 mM aliquots. For the assay, substrate and enzymes are diluted in HCBC buffer to the desired concentrations. Compounds are added to the 96 well plate containing enzyme and the reaction is started by the addition of substrate.
(§3) For either the thiopeptide or fluorescent peptide test procedures, the slope of the line is calculated and represents the reaction rate. The linearity of the reaction rate is confirmed (r^2 >0.85). The mean (x±sem) of the control rate is calculated and compared for statistical significance (p<0.05) with drug-treated rates using Dunnett's multiple comparison test.

MMP-9 = MMP-9 (Homo sapiens, UniProt P14780); experiment: MMP-9 inhibition (thiopeptide or fluorescent peptide substrate); type: biochemical
Sequence of MMP-9 (P14780 94-707): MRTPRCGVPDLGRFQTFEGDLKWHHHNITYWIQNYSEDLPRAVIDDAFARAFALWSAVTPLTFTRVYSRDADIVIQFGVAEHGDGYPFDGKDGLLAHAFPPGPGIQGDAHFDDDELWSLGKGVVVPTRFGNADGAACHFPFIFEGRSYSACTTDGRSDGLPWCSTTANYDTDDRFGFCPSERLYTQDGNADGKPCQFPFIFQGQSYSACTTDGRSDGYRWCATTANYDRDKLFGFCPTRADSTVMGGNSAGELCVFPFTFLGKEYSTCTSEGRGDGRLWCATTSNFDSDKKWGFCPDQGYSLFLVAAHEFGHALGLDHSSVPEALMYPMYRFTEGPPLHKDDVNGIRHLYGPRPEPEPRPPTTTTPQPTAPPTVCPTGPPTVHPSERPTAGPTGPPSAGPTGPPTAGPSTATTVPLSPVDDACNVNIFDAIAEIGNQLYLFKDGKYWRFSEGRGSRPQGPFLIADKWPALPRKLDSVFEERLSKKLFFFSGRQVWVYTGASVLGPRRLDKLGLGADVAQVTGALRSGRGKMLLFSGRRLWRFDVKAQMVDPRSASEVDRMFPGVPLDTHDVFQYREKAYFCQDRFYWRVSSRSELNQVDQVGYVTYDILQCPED
Procedure: as §1, §2, §3

[1] = target: TNF-α converting enzyme (TACE) (Homo sapiens, UniProt P78536); experiment: TACE inhibition (fluorescent peptidyl substrate); type: biochemical; settings: read-out: IC50 (nM) or % Inhibition (µM) TACE
Sequence of TNF-α converting enzyme (TACE) (P78536 215-824, species assumed): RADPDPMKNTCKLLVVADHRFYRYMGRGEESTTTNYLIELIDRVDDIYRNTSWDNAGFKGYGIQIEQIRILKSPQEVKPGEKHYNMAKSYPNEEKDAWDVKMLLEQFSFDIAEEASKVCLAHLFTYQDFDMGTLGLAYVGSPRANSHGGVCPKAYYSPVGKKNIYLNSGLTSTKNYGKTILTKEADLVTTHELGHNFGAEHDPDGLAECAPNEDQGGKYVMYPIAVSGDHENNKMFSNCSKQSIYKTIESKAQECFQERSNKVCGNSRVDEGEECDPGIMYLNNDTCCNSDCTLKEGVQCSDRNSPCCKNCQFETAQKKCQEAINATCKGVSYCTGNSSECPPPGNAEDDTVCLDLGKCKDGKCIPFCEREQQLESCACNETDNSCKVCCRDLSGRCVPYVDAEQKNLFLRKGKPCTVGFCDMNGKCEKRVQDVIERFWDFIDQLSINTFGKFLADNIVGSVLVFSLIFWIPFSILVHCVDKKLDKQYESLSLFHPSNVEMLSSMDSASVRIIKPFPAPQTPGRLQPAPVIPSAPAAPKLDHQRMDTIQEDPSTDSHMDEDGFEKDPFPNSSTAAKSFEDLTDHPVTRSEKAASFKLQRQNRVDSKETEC
Procedure: Using 96-well black microtiter plates, each well receives a solution composed of 10 µL TACE (final concentration 1µg/mL), 70µL Tris buffer, pH 7.4 containing 10% glycerol (final concentration 10 mM), and 10 µL of test compound solution in DMSO (final concentration 1µM, DMSO concentration <1%) and incubated for 10 minutes at room temperature. The reaction is initiated by addition of a fluorescent peptidyl substrate (final concentration 100 µM) to each well and then shaking on a shaker for 5 sec.
The reaction is read (excitation 340 nm, emission 420 nm) for 10 min. and the increase in fluorescence over time is plotted as a linear line. The slope of the line is calculated and represents the reaction rate.
The linearity of the reaction rate is confirmed (r^2 >0.85). The mean (x±sem) of the control rate is calculated and compared for statistical significance (p<0.05) with drug-treated rates using Dunnett's multiple comparison test.

MMP-1 = target: T1, MMP-1 (Homo sapiens, UniProt P03956); experiment: MMP-1 inhibition (thiopeptide or fluorescent peptide substrate); type: biochemical; settings: for IC50: plain number = IC50; for inhibition at 10 µM: read-out: IC50 (nM) or % Inhibition (µM) MMP-1
T1 sequence (P03956 100-469): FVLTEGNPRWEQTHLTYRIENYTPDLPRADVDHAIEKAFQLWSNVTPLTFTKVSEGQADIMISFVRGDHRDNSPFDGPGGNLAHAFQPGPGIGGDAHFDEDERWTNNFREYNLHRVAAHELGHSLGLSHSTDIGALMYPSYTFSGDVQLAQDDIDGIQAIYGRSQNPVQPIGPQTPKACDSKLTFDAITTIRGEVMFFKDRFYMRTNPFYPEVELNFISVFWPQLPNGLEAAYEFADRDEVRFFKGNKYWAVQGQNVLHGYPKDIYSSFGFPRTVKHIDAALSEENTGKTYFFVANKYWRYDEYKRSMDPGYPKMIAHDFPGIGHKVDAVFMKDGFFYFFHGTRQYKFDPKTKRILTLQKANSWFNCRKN
Procedure: as §1, §2, §3

THP-1 cells = experiment: THP-1 soluble protein assay (LPS-stimulated human monocytic THP-1 cells); type: cell-based; settings: Homo sapiens, LPS-stimulated THP-1 cells, read-out: % Inhib. @ 3µM THP
Excerpt: Mitogenic stimulation of THP-1 cells cause differentiation into macrophage like cells with concomitant secretion of tumor necrosis factor (TNF-a) and TNF receptor (TNF-R p75/80 and TNF-R p55/60) and Interleukin-8 (IL-8), among other proteins. In addition, non-stimulated THP-1 cells shed both the p75/80 and the p55/60 receptors over time. The release of membrane bound TNF-α and possibly TNF-R p75/80 and TNF-R p55/60, but not IL-8, is mediated by an enzyme called TNF-a converting enzyme or TACE.
THP-1 cells (from ATCC) are a human monocytic cell line which were obtained from the peripheral blood of a person with acute monocytic leukemia. They can be grown in culture and differentiated into macrophage like cells by stimulation with mitogens.
Each vial of cells are cultured for about two weeks prior to being used for an assay and then are used for only 4 to 6 weeks to screen compounds.
Cell exposure to DMSO was limited to 0.1 % final concentration. […] Compounds can be evaluated for their effect on basal (non-stimulated) shedding of the receptors by replacing the LPS with […] of THP-1 media. Plates are placed into an incubator set at 5% CO2 and at 37°C. After 4 hours of incubation, […] of tissue culture supernatant (TCS) is removed for use in an TNF-a ELISA. Following 24 hours of incubation, […] of TCS is removed and used for analysis in TNF-R p75/80, TNF-R p55/60 and IL-8 ELISAs.
In addition, at the 24 hours timepoint, and the cells for each treatment group are collected by resuspension in 500 µl/well of THP-1 media and transferred into a FACS tube. […] The samples are run on a Becton Dickinson FaxCaliber FLOW cytometry machine and the amount of dye taken up by each cell is measured in the high red wavelength (FL3). Only cells with compromised membranes (dead or dying) can take up PI. The percent of live cells is calculated by the number of cells not stained with PI, divided by the total number of cells in the sample. The viability values calculated for the drug treated groups were compared to the viability value calculated for the vehicle treated mitogen stimulated group ("vehicle positive control") to determine the "percent change from control". This "percent change from control" value is an indicator of drug toxicity.
The quantity of soluble TNF-a, TNF-R p75/80 and TNF-R p55/60 and IL-8 in the TCS of the THP-1 cell cultures are obtained with commercially available ELISAs from R&D Systems, by extrapolation from a standard curve generated with kit standards. The number of cells that either take up or exclude PI are measured by the FLOW cytometry machine and visualized by histograms using commercially available Cytologic software for each treatment group including all controls.
Biological variability in the magnitude of the response of THP-1 cell cultures requires that experiments be compared on the basis of percent change from "vehicle positive control" for each drug concentration. Percent change in each soluble protein evaluated from the "vehicle positive control" was calculated for each compound concentration with the following formula: % Change =(pg/ml(compound) - pg/ml (veh pos control))/(pg/ml (veh pos control) - pg/ml(veh neg control))x 100 [formula]
For the soluble protein (TNF-a, p75/80, p55/60, IL-8) studies under stimulated conditions, the mean pg/ml of duplicate wells were determined and the results expressed as percent change from "vehicle positive control". For the soluble protein (p75/80 and p55/60 receptors) studies under non-stimulated conditions, the mean pg/ml of duplicate wells were determined and the results expressed as percent change from "vehicle positive control" utilizing the following formula: % Change =(pg/ml (compound neg control) - pg/ml (veh neg control)/(pg/ml (veh neg control))X 100 [formula]
IC50 values for each compound are calculated by non-linear regression analysis using customized software utilizing the JUMP statistical package.

Row | SMILES | IC50 (MMP-13) [nM] | IC50 (MMP-9) [nM] | IC50 [1] [nM] | IC50 (MMP-1) [nM] | inhibition at 3 µM (THP-1 cells) [%] | inhibition at 10 µM (MMP-1) [%]
1 | COc1cccc(C#CCOc2ccc(S(=O)(=O)N(C)c3c(C)cc(Br)cc3C(=O)NO)cc2)c1 [Example 60, 5-Bromo-N-hydroxy-2-({4-[3-(3-methoxy-phenyl)-prop-2-ynyloxy]-benzenesulfonyl}-methyl-amino)-3-methyl-benzamide] | 935 | 671 | 91 | 1030 | 1 | –
2 | CNCC#CCOc1ccc(S(=O)(=O)N(C)c2c(C)cc(Br)cc2C(=O)NO)cc1 [Example 32, 5-Bromo-N-hydroxy-3-methyl-2-{methyl-[4-(4-methylamino-but-2-ynyloxy)-benzenesulfonyl]-amino}-benzamide] | 255 | 643 | 58 | – | 15 | 26
3 | CC#CCOc1ccc(S(=O)(=O)N(C)c2c(C)cc(-c3ccccc3)cc2C(=O)NO)cc1 [Example 43, 4-[(4-But-2-ynyloxy-benzenesulfonyl)-methyl-amino]-5-methyl-biphenyl-3-carboxylic acid hydroxyamide] | 518 | 578 | 135 | 4240 | 76 | –
4 | CC#CCOc1ccc(S(=O)(=O)N(C)c2c(CN3CCN(C)CC3)cc(-c3ccccc3)cc2C(=O)NO)cc1 [Example 76, 4-[(4-But-2-ynyloxy-benzenesulfonyl)-methyl-amino]-5-(4-methyl-piperazin-1-ylmethyl)-biphenyl-3-carboxylic acid hydroxyamide dihydro-chloride salt] | 47 | 28 | 42 | 1920 | 95 | –
5 | CCCC#CCOc1ccc(S(=O)(=O)N(C)c2c(C)cc(Br)cc2C(=O)NO)cc1 [Example 57, 5-Bromo-2-[(4-hex-2-ynyloxy-benzenesulfonyl)-methyl-amino]-N-hydroxy-3-methyl-benzamide] | 358 | 232 | 47 | 2360 | 11 | –
6 | CCN(CC)CC#CCOc1ccc(S(=O)(=O)N(C)c2c(C)cc(Br)cc2C(=O)NO)cc1 [Example 66, 5-Bromo-2-{[4-(4-diethylamino-but-2-ynyloxy)-benzenesulfonyl]-methyl-amino}-N-hydroxy-3-methyl-benzamide] | 2380 | 2830 | 346 | – | 5 | 21
7 | Cc1cc(Br)cc(C(=O)NO)c1N(C)S(=O)(=O)c1ccc(OCC#CCNC2CCC2)cc1 [Example 31, 5-Bromo-2-{[4-(4-cyclobutylamino-but-2-ynyloxy)-benzenesulfonyl]-methyl-amino}-N-hydroxy-3-methyl-benzamide] | 724 | 301 | 44 | – | 6 | 19
8 | Cc1cc(Br)cc(C(=O)NO)c1N(C)S(=O)(=O)c1ccc(OCC#CCNCCCN(C)C)cc1 [Example 33, 5-Bromo-2-({4-[4-(3-dimethylamino-propylamino)-but-2-ynyloxy]-benzenesulfonyl}-methyl-amino)-N-hydroxy-3-methyl-benzamide] | 908 | 1200 | 29 | – | 14 | 32
9 | COc1ccccc1C#CCOc1ccc(S(=O)(=O)N(C)c2c(C)cc(Br)cc2C(=O)NO)cc1 [Example 61, 5-Bromo-N-hydroxy-2-({4-[3-(2-methoxy-phenyl)-prop-2-ynyloxy]-benzenesulfonyl}-methyl-amino)-3-methyl-benzamide] | 1200 | 1510 | 193 | – | 0 | 52
10 | Cc1cc(Br)cc(C(=O)NO)c1N(C)S(=O)(=O)c1ccc(OCC#CCOC2CCCCO2)cc1 (stereo not drawn) [Example 69, 5-Bromo-N-hydroxy-3-methyl-2-(methyl-{4-[4-(tetrahydro-pyran-2-yloxy)-but-2-ynyloxy]-benzenesulfonyl}-amino)-benzamide] | 177 | 396 | 30 | – | 19 | 25
11 | Cc1cc(Br)cc(C(=O)NO)c1N(C)S(=O)(=O)c1ccc(OCC#CCNCCN(C)C)cc1 [Example 34, 5-Bromo-2-({4-[4-(2-dimethylamino-ethylamino)-but-2-ynyloxy]-benzenesulfonyl}-methyl-amino)-N-hydroxy-3-methyl-benzamide] | 383 | 790 | 127 | – | 22 | 39
12 | C#CCOc1ccc(S(=O)(=O)N(C)c2c(C)cc(Br)cc2C(=O)NO)cc1 [Example 53, 5-Bromo-N-hydroxy-3-methyl-2-[methyl-(4-prop-2-ynyloxy-benzenesulfonyl)-amino]-benzamide] | 52 | 15 | 11 | 113 | 55 | –
